# Columns and labels:
# Experiment in all cases: Pre-emergent control of seed germination, soil drench
# Assay type in all cases: in vivo
# [1] = system: Barnyard Grass; conditions: for Percent Pre-Emergent Control of Seed Germination: Table IV, Barnyard Grass
# Source text: (§1) Four parts by weight of the compound, 0.08 part of sorbitan trioleate (Span 85), and 0.02 part of a sorbitan monooleate polyoxyethylene derivative (Tween 80) are dipersed in 40 milliliters of acetone to produce a concentrate composition in the form of a water-dispersible liquid containing the predetermined oxirane compound as the sole active agent.
# (§2) A portion of each of these concentrate compositions were separately dispersed in portions of water to provide aqueous compositions, containing 0.44 pound of the oxirane compound per 100 gallons of ultimate aqueous mixture.
# (§3) The aqueous compositions were then employed for the treatment of seed beds of good agricultural soil which had been prepared and seeded with the seeds of various grass species and broadleaf plants. The grass species included white winter wheat, cultured rice, pigweeds, crabgrass, cheat grass, wild oats, Johnson grass, barnyard grass and yellow foxtail; and the broadleaf plants included corn. In the treating operations, a predetermined quantity of each of the compositions was applied to separate seedbeds as a soil drench at a rate of about 0.43 acre inch of aqueous composition per acre. The quantities were controlled to supply a substantial uniform dosage in a seedbed equivalent to 1.0, 2.0 and 5.0 pounds of the oxirane compound per acre. These dosages correspond, respectively, to a concentration, within the soil depth penetrated of about 1.6, 3.2 and 8.0 parts by weight of the oxirane compound per million parts by weight of soil. Other seedbeds were similarly seeded with the named plant species but were left untreated to serve as checks.
# (§4) After about 2 weeks the seedbeds were examined to ascertain what control of the growth of seeds had been obtained.
# (§5) were prepared as in Example 32 and similarly employed for the pre-emergencetreatment of various plant species.
# (§6) An aqueous composition containing 2-(α,α,α -trifluoro-m-tolyl)-2-(2,2,2-trichloroethyl)oxirane was prepared as described in Example 32. The composition was then employed according to the procedures of Example 32 except that lower concentrations of the oxirane compound were employed in the composition.
# (§7) The percent control of the various plant species at the employed dosage rate of the 2-(α,α,α-trifluoro-m-tolyl)- 2-(2,2,2-trichloroethyl) supplied by the composition is set forth in the following Table IV.
# [2] = system: Pigweeds; conditions: for Percent Pre-Emergent Control of Seed Germination: Table IV, Pigweeds
# Source text: as §1, §2, §3, §4, §5, §6, §7
# [3] = system: Wild Oats; conditions: for Percent Pre-Emergent Control of Seed Germination: Table IV, Wild Oats
# Source text: as §1, §2, §3, §4, §5, §6, §7
# [4] = system: Yellow Foxtail; conditions: for Percent Pre-Emergent Control of Seed Germination: Table IV, Yellow Foxtail
# Source text: as §1, §2, §3, §4, §5, §6, §7
# [5] = system: Crabgrass; conditions: Table IV, Crabgrass
# Source text: as §1, §2, §3, §4, §5
# (§8) Separate aqueous compositions containing the 2-(m-chlorophenyl)-2-(2,2,2-trichloroethyl)oxirane (Cmpd. A) and 2-(m-bromophenyl)-2-(2,2,2-trichloroethyl)oxirane (Cmpd. C) compounds of the present invention were prepared as in Example 32 for comparative per-emergence herbicide tests against noxious grass species with the known 2 -(p-chlorophenyl)-2-(2,2,2-trichloroethyl)oxirane (Cmpd. B) compound and 2-(p-bromophenyl)-2-(2,2,2-trichloroethyl)oxirane (Cmpd. D). The pre-emergence tests were conducted in Example 32 and the results of such tests are set forth below in Table III.
# as §6, §7
# [6] = system: Johnson Grass; conditions: Table IV, Johnson Grass
# Source text: as §1, §2, §3, §4, §5, §8, §6, §7
# [7] = system: Beans; conditions: Table IV
# Source text: as §1, §2, §3, §4, §6, §7
# [8] = system: Cultured Rice; conditions: Table IV
# Source text: as §1, §2, §3, §4, §6, §7
# [9] = system: White Winter Wheat; conditions: Table IV
# Source text: as §1, §2, §3, §4, §6, §7
# [10] = system: Corn; conditions: Table IV
# Source text: as §1, §2, §3
# After about 2 weeks the seedbeds were examined to ascertain what control of the growth of seeds had been obtained. […]
# as §6, §7
# [11] = system: Soybeans; conditions: Table IV
# [12] = system: Cotton; conditions: Table IV
# Source text: as §1, §2, §3, §4, §8, §6, §7
# [13] = system: Crabgrass; conditions: 20 pounds per acre
smiles,measurement,setting,value
"FC(F)(F)c1cccc(C2(CC(Cl)(Cl)Cl)CO2)c1 (stereo not drawn) [Example 4, 2-(α,α,α -trifluoro-m-tolyl)-2-(2,2,2-trichloroethyl)oxirane]",Percent Pre-Emergent Control of Seed Germination,[1]; 0.03 pounds,50%
same,Percent Pre-Emergent Control of Seed Germination,[1]; 0.07 pounds,95%
same,Percent Pre-Emergent Control of Seed Germination,[1]; 0.13 pounds,95%
same,Percent Pre-Emergent Control of Seed Germination,[1]; 0.25 pounds,95%
same,Percent Pre-Emergent Control of Seed Germination,[1]; 0.5 pounds,95%
same,Percent Pre-Emergent Control of Seed Germination,[1]; 1.0 pounds,95%
same,Percent Pre-Emergent Control of Seed Germination,[2]; 0.03 pounds,0%
same,Percent Pre-Emergent Control of Seed Germination,[2]; 0.07 pounds,30%
same,Percent Pre-Emergent Control of Seed Germination,[2]; 0.13 pounds,50%
same,Percent Pre-Emergent Control of Seed Germination,[2]; 0.25 pounds,100%
same,Percent Pre-Emergent Control of Seed Germination,[2]; 0.5 pounds,100%
same,Percent Pre-Emergent Control of Seed Germination,[2]; 1.0 pounds,100%
same,Percent Pre-Emergent Control of Seed Germination,[3]; 0.03 pounds,30%
same,Percent Pre-Emergent Control of Seed Germination,[3]; 0.07 pounds,85%
same,Percent Pre-Emergent Control of Seed Germination,[3]; 0.13 pounds,95%
same,Percent Pre-Emergent Control of Seed Germination,[3]; 0.25 pounds,95%
same,Percent Pre-Emergent Control of Seed Germination,[3]; 0.5 pounds,95%
same,Percent Pre-Emergent Control of Seed Germination,[3]; 1.0 pounds,95%
same,Percent Pre-Emergent Control of Seed Germination,[4]; 0.03 pounds,30%
same,Percent Pre-Emergent Control of Seed Germination,[4]; 0.07 pounds,0%
same,Percent Pre-Emergent Control of Seed Germination,[4]; 0.13 pounds,95%
same,Percent Pre-Emergent Control of Seed Germination,[4]; 0.25 pounds,100%
same,Percent Pre-Emergent Control of Seed Germination,[4]; 0.5 pounds,100%
same,Percent Pre-Emergent Control of Seed Germination,[4]; 1.0 pounds,100%
same,Percent Pre-Emergent Control of Seed Germination,[5]; 0.03 pounds,60%
same,Percent Pre-Emergent Control of Seed Germination,[5]; 0.07 pounds,75%
same,Percent Pre-Emergent Control of Seed Germination,[5]; 0.13 pounds,100%
same,Percent Pre-Emergent Control of Seed Germination,[5]; 0.25 pounds,100%
same,Percent Pre-Emergent Control of Seed Germination,[5]; 0.5 pounds,100%
same,Percent Pre-Emergent Control of Seed Germination,[5]; 1.0 pounds,100%
same,Percent Pre-Emergent Control of Seed Germination,[6]; 0.03 pounds,0%
same,Percent Pre-Emergent Control of Seed Germination,[6]; 0.07 pounds,80%
same,Percent Pre-Emergent Control of Seed Germination,[6]; 0.13 pounds,100%
same,Percent Pre-Emergent Control of Seed Germination,[6]; 0.25 pounds,100%
same,Percent Pre-Emergent Control of Seed Germination,[6]; 0.5 pounds,100%
same,Percent Pre-Emergent Control of Seed Germination,[6]; 1.0 pounds,100%
same,Percent Pre-Emergent Control of Seed Germination,[7]; 0.03 pounds,30%
same,Percent Pre-Emergent Control of Seed Germination,[7]; 0.07 pounds,30%
same,Percent Pre-Emergent Control of Seed Germination,[7]; 0.13 pounds,30%
same,Percent Pre-Emergent Control of Seed Germination,[7]; 0.25 pounds,60%
same,Percent Pre-Emergent Control of Seed Germination,[7]; 0.5 pounds,70%
same,Percent Pre-Emergent Control of Seed Germination,[7]; 1.0 pounds,95%
same,Percent Pre-Emergent Control of Seed Germination,[8]; 0.03 pounds,0%
same,Percent Pre-Emergent Control of Seed Germination,[8]; 0.07 pounds,30%
same,Percent Pre-Emergent Control of Seed Germination,[8]; 0.13 pounds,100%
same,Percent Pre-Emergent Control of Seed Germination,[8]; 0.25 pounds,100%
same,Percent Pre-Emergent Control of Seed Germination,[8]; 0.5 pounds,100%
same,Percent Pre-Emergent Control of Seed Germination,[8]; 1.0 pounds,100%
same,Percent Pre-Emergent Control of Seed Germination,[9]; 0.03 pounds,0%
same,Percent Pre-Emergent Control of Seed Germination,[9]; 0.07 pounds,50%
same,Percent Pre-Emergent Control of Seed Germination,[9]; 0.13 pounds,100%
same,Percent Pre-Emergent Control of Seed Germination,[9]; 0.25 pounds,100%
same,Percent Pre-Emergent Control of Seed Germination,[9]; 0.5 pounds,100%
same,Percent Pre-Emergent Control of Seed Germination,[9]; 1.0 pounds,100%
same,Percent Pre-Emergent Control of Seed Germination,[10]; 0.03 pounds,0%
same,Percent Pre-Emergent Control of Seed Germination,[10]; 0.07 pounds,0%
same,Percent Pre-Emergent Control of Seed Germination,[10]; 0.13 pounds,0%
same,Percent Pre-Emergent Control of Seed Germination,[10]; 0.25 pounds,90%
same,Percent Pre-Emergent Control of Seed Germination,[10]; 0.5 pounds,95%
same,Percent Pre-Emergent Control of Seed Germination,[10]; 1.0 pounds,95%
same,Percent Pre-Emergent Control of Seed Germination,[11]; 0.03 pounds,0%
same,Percent Pre-Emergent Control of Seed Germination,[11]; 0.07 pounds,0%
same,Percent Pre-Emergent Control of Seed Germination,[11]; 0.13 pounds,100%
same,Percent Pre-Emergent Control of Seed Germination,[11]; 0.25 pounds,40%
same,Percent Pre-Emergent Control of Seed Germination,[11]; 0.5 pounds,50%
same,Percent Pre-Emergent Control of Seed Germination,[11]; 1.0 pounds,60%
same,Percent Pre-Emergent Control of Seed Germination,[12]; 0.03 pounds,0%
same,Percent Pre-Emergent Control of Seed Germination,[12]; 0.07 pounds,0%
same,Percent Pre-Emergent Control of Seed Germination,[12]; 0.13 pounds,0%
same,Percent Pre-Emergent Control of Seed Germination,[12]; 0.25 pounds,0%
same,Percent Pre-Emergent Control of Seed Germination,[12]; 0.5 pounds,30%
same,Percent Pre-Emergent Control of Seed Germination,[12]; 1.0 pounds,20%
"ClC(Cl)(Cl)CC1(c2cccc(OCc3ccccc3)c2)CO1 (centres unmarked) [Example 16, 2-(m-(benzyloxy)phenyl)-2-(2,2,2-trichloroethyl)oxirane]",pre-emergence control,"[1]; barnyard grass, 20 pounds per acre",substantially complete control
same,pre-emergence control,"[2]; pigweed, 20 pounds per acre",substantially complete control
same,pre-emergence control,"[3]; wild oats, 20 pounds per acre",substantially complete control
same,pre-emergence control,"[4]; yellow foxtail, 20 pounds per acre",substantially complete control
same,pre-emergence control,[13],substantially complete control

# Reference: patent publication US4018801A, “Substituted oxirane compounds” (The Dow Chemical Company, priority 1975, dated 1977)
